Numbers after ± are expanded uncertainties.
Columns and labels:
[1] = excess molar enthalpy (molar enthalpy of mixing); xn = mol fraction of the nth substance listed; settings: 298.15 K, 101.3 kPa, Liquid, Calvet calorimetry
[2] = Liquid; for mass density: 303.15 K, 101.33 kPa, Pycnometric method; for Normal boiling temperature: Ebulliometric method (Recirculating still)

`ClC(Cl)=C(Cl)Cl` [tetrachloroethene] + C[S+](C)[O-] showed an excess molar enthalpy ([1]; x1 = 0.0544) of 0.0285 ± 0.000669 kcal/mol, an excess molar enthalpy ([1]; x1 = 0.1116) of 0.0584 ± 0.00131 kcal/mol and an excess molar enthalpy ([1]; x1 = 0.171) of 0.0912 ± 0.00201 kcal/mol. For the same compound, the excess molar enthalpy ([1]; x1 = 0.2237) was 0.117 ± 0.00263 kcal/mol, the excess molar enthalpy ([1]; x1 = 0.2735) was 0.141 ± 0.00311 kcal/mol and the excess molar enthalpy ([1]; x1 = 0.3306) was 0.155 ± 0.00335 kcal/mol. For the same compound, the excess molar enthalpy ([1]; x1 = 0.385) was 0.157 ± 0.00335 kcal/mol, the excess molar enthalpy ([1]; x1 = 0.477) was 0.139 ± 0.00311 kcal/mol and the excess molar enthalpy ([1]; x1 = 0.5162) was 0.123 ± 0.00263 kcal/mol. The excess molar enthalpy ([1]; x1 = 0.5695) was 0.105 ± 0.00227 kcal/mol, the excess molar enthalpy ([1]; x1 = 0.6333) was 0.0866 ± 0.00189 kcal/mol and the excess molar enthalpy ([1]; x1 = 0.701) was 0.0645 ± 0.00143 kcal/mol. For the same compound, the excess molar enthalpy ([1]; x1 = 0.7632) was 0.0522 ± 0.00117 kcal/mol, the excess molar enthalpy ([1]; x1 = 0.8252) was 0.0488 ± 0.0011 kcal/mol and the excess molar enthalpy ([1]; x1 = 0.8872) was 0.0456 ± 0.00103 kcal/mol. For the same compound, the excess molar enthalpy ([1]; x1 = 0.9519) was 0.0314 ± 0.000741 kcal/mol.
For `ClC(Cl)C(Cl)Cl` [1,1,2,2-tetrachloroethane] + C[S+](C)[O-], the excess molar enthalpy ([1]; x1 = 0.0378) was -0.0704 ± 0.00155 kcal/mol, the excess molar enthalpy ([1]; x1 = 0.0688) was -0.149 ± 0.00311 kcal/mol and the excess molar enthalpy ([1]; x1 = 0.1005) was -0.229 ± 0.00502 kcal/mol. It also gave an excess molar enthalpy ([1]; x1 = 0.1295) of -0.307 ± 0.00669 kcal/mol, an excess molar enthalpy ([1]; x1 = 0.1325) of -0.309 ± 0.00669 kcal/mol and an excess molar enthalpy ([1]; x1 = 0.1565) of -0.372 ± 0.00789 kcal/mol. For the same compound, the excess molar enthalpy ([1]; x1 = 0.1793) was -0.423 ± 0.00908 kcal/mol, the excess molar enthalpy ([1]; x1 = 0.2167) was -0.494 ± 0.0105 kcal/mol and the excess molar enthalpy ([1]; x1 = 0.2914) was -0.652 ± 0.0139 kcal/mol. For the same compound, the excess molar enthalpy ([1]; x1 = 0.3555) was -0.774 ± 0.0165 kcal/mol, the excess molar enthalpy ([1]; x1 = 0.4111) was -0.839 ± 0.0179 kcal/mol and the excess molar enthalpy ([1]; x1 = 0.4577) was -0.843 ± 0.0179 kcal/mol. For the same compound, the excess molar enthalpy ([1]; x1 = 0.4979) was -0.84 ± 0.0179 kcal/mol, the excess molar enthalpy ([1]; x1 = 0.5577) was -0.816 ± 0.0174 kcal/mol and the excess molar enthalpy ([1]; x1 = 0.6277) was -0.755 ± 0.016 kcal/mol. For the same compound, the excess molar enthalpy ([1]; x1 = 0.6654) was -0.712 ± 0.0151 kcal/mol, the excess molar enthalpy ([1]; x1 = 0.7123) was -0.664 ± 0.0141 kcal/mol and the excess molar enthalpy ([1]; x1 = 0.7577) was -0.609 ± 0.0129 kcal/mol. The excess molar enthalpy ([1]; x1 = 0.8121) was -0.514 ± 0.011 kcal/mol, the excess molar enthalpy ([1]; x1 = 0.8537) was -0.435 ± 0.00932 kcal/mol and the excess molar enthalpy ([1]; x1 = 0.9099) was -0.252 ± 0.0055 kcal/mol.
Compound `CC(Cl)(Cl)Cl` [1,1,1-trichloroethane] + C[S+](C)[O-] has an excess molar enthalpy ([1]; x1 = 0.0243) of -0.0102 ± 0.000311 kcal/mol, an excess molar enthalpy ([1]; x1 = 0.0579) of -0.023 ± 0.000574 kcal/mol and an excess molar enthalpy ([1]; x1 = 0.109) of -0.0422 ± 0.000956 kcal/mol. It also gave an excess molar enthalpy ([1]; x1 = 0.1532) of -0.0563 ± 0.00127 kcal/mol, an excess molar enthalpy ([1]; x1 = 0.1973) of -0.0679 ± 0.00151 kcal/mol and an excess molar enthalpy ([1]; x1 = 0.244) of -0.0796 ± 0.00174 kcal/mol. For the same compound, the excess molar enthalpy ([1]; x1 = 0.2857) was -0.087 ± 0.00191 kcal/mol, the excess molar enthalpy ([1]; x1 = 0.3462) was -0.0932 ± 0.00203 kcal/mol and the excess molar enthalpy ([1]; x1 = 0.4106) was -0.0986 ± 0.00215 kcal/mol. It also gave an excess molar enthalpy ([1]; x1 = 0.4797) of -0.0987 ± 0.00215 kcal/mol, an excess molar enthalpy ([1]; x1 = 0.5571) of -0.0945 ± 0.00208 kcal/mol and an excess molar enthalpy ([1]; x1 = 0.6064) of -0.0869 ± 0.00191 kcal/mol. For the same compound, the excess molar enthalpy ([1]; x1 = 0.6632) was -0.0775 ± 0.0017 kcal/mol, the excess molar enthalpy ([1]; x1 = 0.7189) was -0.0666 ± 0.00148 kcal/mol and the excess molar enthalpy ([1]; x1 = 0.7771) was -0.0526 ± 0.0012 kcal/mol. For the same compound, the excess molar enthalpy ([1]; x1 = 0.8537) was -0.0323 ± 0.000765 kcal/mol and the excess molar enthalpy ([1]; x1 = 0.9297) was -0.0102 ± 0.000311 kcal/mol.
For `ClCCCl` [1,2-dichloroethane], the mass density [2] was 1238.41 ± 1.2 kg/m3 and the Normal boiling temperature [2] was 83.80 ± 0.2 °C.
`ClC(Cl)C(Cl)Cl` [1,1,2,2-tetrachloroethane] showed a mass density [2] of 1578.59 ± 1.5 kg/m3 and a Normal boiling temperature [2] of 145.20 ± 0.2 °C.
`C[S+](C)[O-]` [dimethyl sulfoxide] gave a mass density [2] of 1092.4 ± 1 kg/m3 and a Normal boiling temperature [2] of 189.04 ± 0.2 °C.
`ClC=C(Cl)Cl` [trichloroethene] + C[S+](C)[O-] gave an excess molar enthalpy ([1]; x1 = 0.0673) of -0.0229 ± 0.000574 kcal/mol, an excess molar enthalpy ([1]; x1 = 0.1345) of -0.0579 ± 0.00129 kcal/mol and an excess molar enthalpy ([1]; x1 = 0.2079) of -0.106 ± 0.00232 kcal/mol. It also gave an excess molar enthalpy ([1]; x1 = 0.3016) of -0.152 ± 0.00335 kcal/mol, an excess molar enthalpy ([1]; x1 = 0.3784) of -0.153 ± 0.00335 kcal/mol and an excess molar enthalpy ([1]; x1 = 0.4461) of -0.147 ± 0.00311 kcal/mol. It also gave an excess molar enthalpy ([1]; x1 = 0.4987) of -0.14 ± 0.00311 kcal/mol, an excess molar enthalpy ([1]; x1 = 0.6022) of -0.11 ± 0.00239 kcal/mol and an excess molar enthalpy ([1]; x1 = 0.6641) of -0.102 ± 0.00222 kcal/mol. The excess molar enthalpy ([1]; x1 = 0.7014) was -0.098 ± 0.00215 kcal/mol, the excess molar enthalpy ([1]; x1 = 0.737) was -0.0976 ± 0.00213 kcal/mol and the excess molar enthalpy ([1]; x1 = 0.8114) was -0.0854 ± 0.00186 kcal/mol. For the same compound, the excess molar enthalpy ([1]; x1 = 0.8611) was -0.0706 ± 0.00155 kcal/mol and the excess molar enthalpy ([1]; x1 = 0.9151) was -0.0481 ± 0.0011 kcal/mol.
Compound `ClC(Cl)=C(Cl)Cl` [tetrachloroethene] has a mass density [2] of 1606.39 ± 1.6 kg/m3 and a Normal boiling temperature [2] of 121.00 ± 0.2 °C.
For `ClC=C(Cl)Cl` [trichloroethene], the mass density [2] was 1451.42 ± 1.4 kg/m3 and the Normal boiling temperature [2] was 87.10 ± 0.2 °C.
`CC(Cl)(Cl)Cl` [1,1,1-trichloroethane] showed a mass density [2] of 1320.97 ± 1.3 kg/m3 and a Normal boiling temperature [2] of 74.20 ± 0.2 °C.
For `ClCCCl` [1,2-dichloroethane] + C[S+](C)[O-], the excess molar enthalpy ([1]; x1 = 0.0732) was -0.0141 ± 0.000382 kcal/mol, the excess molar enthalpy ([1]; x1 = 0.1296) was -0.0219 ± 0.00055 kcal/mol and the excess molar enthalpy ([1]; x1 = 0.1713) was -0.0257 ± 0.000621 kcal/mol. For the same compound, the excess molar enthalpy ([1]; x1 = 0.2259) was -0.0301 ± 0.000717 kcal/mol, the excess molar enthalpy ([1]; x1 = 0.2783) was -0.0361 ± 0.000837 kcal/mol and the excess molar enthalpy ([1]; x1 = 0.3275) was -0.0458 ± 0.00105 kcal/mol. It also gave an excess molar enthalpy ([1]; x1 = 0.3609) of -0.0548 ± 0.00122 kcal/mol, an excess molar enthalpy ([1]; x1 = 0.4054) of -0.0712 ± 0.00158 kcal/mol and an excess molar enthalpy ([1]; x1 = 0.4636) of -0.0899 ± 0.00196 kcal/mol. The excess molar enthalpy ([1]; x1 = 0.5266) was -0.11 ± 0.00239 kcal/mol, the excess molar enthalpy ([1]; x1 = 0.6133) was -0.138 ± 0.00311 kcal/mol and the excess molar enthalpy ([1]; x1 = 0.6613) was -0.143 ± 0.00311 kcal/mol. The excess molar enthalpy ([1]; x1 = 0.7158) was -0.131 ± 0.00287 kcal/mol, the excess molar enthalpy ([1]; x1 = 0.7593) was -0.127 ± 0.00263 kcal/mol and the excess molar enthalpy ([1]; x1 = 0.8032) was -0.106 ± 0.00232 kcal/mol. For the same compound, the excess molar enthalpy ([1]; x1 = 0.861) was -0.0677 ± 0.00151 kcal/mol and the excess molar enthalpy ([1]; x1 = 0.9269) was -0.0285 ± 0.000669 kcal/mol.
